Series [1] in a line: UV absorbance spectrum in solution (λmax, λcrit, extinction coefficients). It counts as physicochemical. Conditions: for λcrit: critical wavelength; for E (1%, 1 cm): mass extinction coefficient; for ε: molar extinction coefficient, in M-1 cm-1 (unit assumed). The source says: (§1) FIG. 1 is a graphical representation of the absorbance of compounds 142 and 143 measured in a 10 mm cuvette as 0.001% solutions in methanol (142 is the uppermost trace at peak point of approximately 330 nm); The synthesised benzoyl functionalised compounds and their spectroscopic properties can be seen in table 2 wherein; breakthrough denotes the value in nm where transmittance increases beyond 1%; steepness refers to the distance in nm over which transmittance increases from 1 to 80% (a higher value indicates a less steep transition from absorbing to transmitting and is generally unfavourable); and ^a denotes an average of multiple measurements. As a general comment, it can be noted that the benzoyl substituted compounds gave similar absorbance maxima to the corresponding trifluoroacetyl derivative.

Series [2] is described as follows: % transmission spectrum of 0.1% solution (breakthrough, steepness). The series is classed as physicochemical. Particulars: for Steepness: distance in nm over which transmittance increases from 1 to 80%; for Breakthrough (1% T at 0.1%): value in nm where transmittance increases beyond 1%, 0.1% solution.
Text: FIG. 2 is a is a graphical representation of the % transmission of compounds 142 and 143 measured in a 2 mm cuvette as 0.1% solutions in methanol (142 is the left most trace);
as §1, with “The” for “FIG. 1 is a graphical representation of the absorbance of compounds 142 and 143 measured in a 10 mm cuvette as 0.001% solutions in methanol (142 is the uppermost trace at peak point of approximately 330 nm); The”

Where “and” joins values, the source holds several entries; their conditions need not be identical. Equal entries are not always repeated.

`CCCCCCC(=O)C1=CN(c2ccc(N3C=C(C(=O)CCCCCC)C(C)(C)CC3)cc2)CCC1(C)C` [Compound 129, reference compound]: in series [1], the λmax is reported as 359 nm; the λcrit amounted to 378 nm; the “E (1%, 1 cm)” value is 1169 and 1350; the ε is 60809 and 70222. Moreover, in series [2], the Steepness worked out at 20 nm and the “Breakthrough (1% T at 0.1%)” value was found to be 397 nm.
For the compound `CCCCC(CC)COc1cccc(N(/C=C(\C(=O)C(F)(F)F)c2ccccc2)CC)c1` (stereo not shown) [Compound 221], in series [1], the λmax is 332 nm; the λcrit was 366 nm; the “E (1%, 1 cm)” value is recorded as 490; the ε was 21876.
As to `Cc1ccccc1N(/C=C(\C(=O)C(F)(F)F)c1ccccc1)c1ccccc1` [Compound 223], in series [1], the λmax is 344 nm; the λcrit was 377 nm; the “E (1%, 1 cm)” value is recorded as 679; the ε was found to be 25885.
As to `CCN(/C=C(\C(=O)C(F)(F)F)c1ccccc1)c1cccc(Br)c1` [Compound 225], in series [1], the λmax is 332 nm; the λcrit is given as 366 nm; the “E (1%, 1 cm)” value is 609; the ε is recorded as 24181.
Take `CCN(/C=C(\C(=O)C(F)(F)F)c1ccccc1)CCOC(=O)c1ccc2c(c1)CCN2/C=C(\C(=O)C(F)(F)F)c1ccccc1` [Compound 226]: in series [1], the λmax came to 374 nm; the λcrit is listed as 388 nm; the “E (1%, 1 cm)” value came to 685; the ε is 43151.
On to `COC(=O)c1ccc(N(/C=C(\C(=O)C(F)(F)F)c2ccccc2)c2ccccc2)cc1` [Compound 229], for which, in series [1], the λmax is listed as 356 nm; the λcrit was determined as 382 nm; the “E (1%, 1 cm)” value is given as 786; the ε stood at 33427. Further, in series [2], the Steepness is on record as 33 nm and the “Breakthrough (1% T at 0.1%)” value was 403 nm.
`CCCCC(CC)COC(=O)c1ccc(N(/C=C(\C(=O)C(F)(F)F)c2ccccc2)c2ccccc2)cc1` (stereo not shown) [Compound 230]: in series [1], the λmax is 355 nm; the λcrit is given as 381 nm; the “E (1%, 1 cm)” value was 522; the ε is listed as 27313. Besides, in series [2], the Steepness was 34 nm and the “Breakthrough (1% T at 0.1%)” value is reported as 398 nm.
Consider `CCCCC(CC)COC(=O)c1cccc(N(/C=C(/C(=O)C(F)(F)F)c2ccccc2)CC)c1` (stereo not shown) [Compound 232], for which, in series [1], the λmax is 334 nm; the λcrit was 368 nm; the “E (1%, 1 cm)” value came out at 430; the ε worked out at 20462. For the same compound, in series [2], the Steepness came out at 35 nm and the “Breakthrough (1% T at 0.1%)” value turned out to be 373 nm.
As for `O=C(/C(=C\N1CCc2cc(C(F)(F)F)ccc21)c1ccccc1)C(F)(F)F` [Compound 235], in series [1], the λmax came out at 361 nm; the λcrit amounted to 386 nm; the “E (1%, 1 cm)” value is reported as 965; the ε is recorded as 37158. For the same compound, in series [2], the Steepness is given as 19 nm and the “Breakthrough (1% T at 0.1%)” value is reported as 409 nm.
Take `O=C(/C(=C\N1CCc2ccc(C(F)(F)F)cc21)c1ccccc1)C(F)(F)F` [Compound 236]: in series [1], the λmax worked out at 364 nm; the λcrit is recorded as 387 nm; the “E (1%, 1 cm)” value is on record as 815; the ε stood at 31379. Also, in series [2], the Steepness is listed as 19 nm and the “Breakthrough (1% T at 0.1%)” value was determined as 409 nm.
With `CCN(/C=C(/C(=O)C(F)(F)F)c1ccccc1)c1ccc(C(=O)OC)cc1` [Compound 239], in series [1], the λmax was determined as 348 nm; the λcrit is on record as 375 nm; the “E (1%, 1 cm)” value worked out at 728; the ε was 25349. Moreover, in series [2], the Steepness is listed as 28 nm and the “Breakthrough (1% T at 0.1%)” value stood at 391 nm.
Consider `CCN(/C=C(\C(=O)C(F)(F)F)c1ccccc1)CCCCCCN(/C=C(\C(=O)C(F)(F)F)c1ccccc1)CC` [Compound 242], for which, in series [1], the λmax was 318 nm; the λcrit was 353 nm; the “E (1%, 1 cm)” value amounted to 544; the ε came out at 30981. In addition, in series [2], the Steepness is 52 nm and the “Breakthrough (1% T at 0.1%)” value is listed as 361 nm.
As for `CN(C)S(=O)(=O)c1ccc(C(=O)/C(=C/N(c2ccccc2)c2ccccc2)c2ccccc2)cc1` [Compound 265], in series [1], the λmax is recorded as 360 nm; the λcrit stood at 387 nm; the “E (1%, 1 cm)” value is reported as 327; the ε turned out to be 15775. Further, in series [2], the Steepness is reported as 48 nm and the “Breakthrough (1% T at 0.1%)” value is recorded as 418 nm.
Take `CN(C)S(=O)(=O)c1ccc(C(=O)/C(=C/N2CCc3ccccc32)c2ccccc2)cc1` [Compound 266]: in series [1], the λmax stood at 368 nm; the λcrit was determined as 390 nm; the “E (1%, 1 cm)” value amounted to 552; the ε is 23870. Further, in series [2], the Steepness was determined as 46 nm and the “Breakthrough (1% T at 0.1%)” value was 429 nm.
Take `COC(=O)c1ccc2c(c1)CCN2/C=C(/C(=O)C(=O)Oc1ccccc1)c1ccccc1` [Compound 281]: in series [1], the λmax was 376 nm; the λcrit was determined as 392 nm; the “E (1%, 1 cm)” value was determined as 703; the ε is listed as 30040. In series [2], the Steepness was found to be 34 nm and the “Breakthrough (1% T at 0.1%)” value was 419 nm.
With `COC(=O)c1ccc2c(c1)CCN2/C=C(/C(=O)c1ccc(C)cc1)c1ccccc1` [Compound 284], in series [1], the λmax is reported as 371 nm; the λcrit turned out to be 389 nm; the “E (1%, 1 cm)” value stood at 1150; the ε was found to be 45689. Further, in series [2], the Steepness is 30 nm and the “Breakthrough (1% T at 0.1%)” value came to 423 nm.
With `COC(=O)c1ccc2c(c1)CCN2/C=C(/C(=O)c1cccc(C)c1)c1ccccc1` [Compound 286], in series [1], the λmax worked out at 370 nm; the λcrit was found to be 389 nm; the “E (1%, 1 cm)” value came out at 1205; the ε is reported as 47867. In series [2], the Steepness came out at 46 nm and the “Breakthrough (1% T at 0.1%)” value came out at 423 nm.
Take `COC(=O)c1ccc2c(c1)CCN2/C=C(/C(=O)OC1(C)CCCCC1)c1ccccc1` [Compound 288]: in series [1], the λmax was determined as 356 nm; the λcrit is listed as 370 nm; the “E (1%, 1 cm)” value is 1360; the ε was 57009. In series [2], the Steepness was determined as 28 nm and the “Breakthrough (1% T at 0.1%)” value amounted to 383 nm.
Regarding `CC(C)(C)C(=O)/C(=C/N(c1ccccc1)c1ccccc1)c1ccccc1` [Compound 294], in series [1], the λmax is 344 nm; the λcrit was 373 nm; the “E (1%, 1 cm)” value came out at 492; the ε is 17462. Also, in series [2], the Steepness worked out at 28 nm and the “Breakthrough (1% T at 0.1%)” value worked out at 383 nm.

These data come from US11512042B2, “Enamine compounds for absorbance of electromagnetic energy” (Commonwealth Scientific and Industrial Research Organisation, priority 2015, dated 2022).
